Assay results: BindingDB's records for doi:10.1016/S0960-894X(01)80247-X (1994)

What was measured:
[1] = biological target: T1, Endothelin-1 receptor (Rattus norvegicus, UniProt P26684); assay: Concentration required to produce 50% inhibition of binding against ET A receptor obtained from rat thoracic aortic membrane
T1 sequence (P26684 whole entry): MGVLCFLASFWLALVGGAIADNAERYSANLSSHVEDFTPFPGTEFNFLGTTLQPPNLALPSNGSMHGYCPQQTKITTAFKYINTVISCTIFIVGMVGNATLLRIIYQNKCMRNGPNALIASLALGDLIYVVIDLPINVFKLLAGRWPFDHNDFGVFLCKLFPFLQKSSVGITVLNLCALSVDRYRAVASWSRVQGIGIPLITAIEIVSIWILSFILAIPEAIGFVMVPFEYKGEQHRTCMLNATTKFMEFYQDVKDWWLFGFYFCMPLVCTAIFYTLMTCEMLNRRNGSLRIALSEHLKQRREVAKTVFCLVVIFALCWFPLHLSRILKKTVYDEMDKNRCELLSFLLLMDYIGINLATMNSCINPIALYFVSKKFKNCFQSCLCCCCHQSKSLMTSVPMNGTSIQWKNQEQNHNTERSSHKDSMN

[2] = biological target: T2, Endothelin receptor type B (Rattus norvegicus, UniProt P21451); assay: Concentration required to produce 50% inhibition of binding against ET B receptor obtained from rat brain membrane
T2 sequence (P21451 whole entry): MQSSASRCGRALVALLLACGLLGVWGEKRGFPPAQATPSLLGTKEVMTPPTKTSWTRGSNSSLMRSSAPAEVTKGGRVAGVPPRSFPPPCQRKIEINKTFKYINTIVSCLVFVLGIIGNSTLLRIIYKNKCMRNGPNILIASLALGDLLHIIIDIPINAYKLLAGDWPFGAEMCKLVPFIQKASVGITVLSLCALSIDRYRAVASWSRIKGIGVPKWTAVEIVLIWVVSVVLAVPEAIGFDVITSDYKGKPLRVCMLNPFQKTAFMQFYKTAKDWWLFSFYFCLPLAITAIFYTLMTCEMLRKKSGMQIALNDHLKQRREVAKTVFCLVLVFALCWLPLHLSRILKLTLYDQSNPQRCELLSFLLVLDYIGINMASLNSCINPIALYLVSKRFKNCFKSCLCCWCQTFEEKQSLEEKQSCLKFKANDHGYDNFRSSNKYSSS

SMILES | pIC50 [1] | pIC50 [2]
CC[C@H](C)[C@H](NC(=O)[C@H](CC(=O)O)NC(=O)[C@H](CC(C)C)NC(=O)[C@H](Cc1cnc[nH]1)NC(=O)[C@H](CS)NC(=O)[C@H](Cc1ccccc1)NC(=O)[C@H](Cc1ccc(O)cc1)NC(=O)[C@@H](NC(=O)[C@H](CS)NC(=O)[C@H](CCC(=O)O)NC(=O)[C@H](CCCCN)NC(=O)[C@H](CC(=O)O)NC(=O)[C@H](CCSC)NC(=O)[C@H](CC(C)C)NC(=O)[C@H](CO)NC(=O)[C@H](CO)NC(=O)[C@H](CS)NC(=O)[C@H](CO)NC(=O)[C@@H](N)CS)C(C)C)C(=O)N[C@H](C(=O)N[C@@H](Cc1c[nH]c2ccccc12)C(=O)O)C1CCCCC1 [Endothelin-1 analogue] | 9.88 | 10
CC[C@H](C)[C@H](NC(=O)[C@H](CC(=O)O)NC(=O)[C@H](CC(C)C)NC(=O)[C@H](Cc1cnc[nH]1)NC(=O)[C@H](CS)NC(=O)[C@H](Cc1ccccc1)NC(=O)[C@H](Cc1ccc(O)cc1)NC(=O)[C@@H](NC(=O)[C@H](CS)NC(=O)[C@H](CCC(=O)O)NC(=O)[C@H](CCCCN)NC(=O)[C@H](CC(=O)O)NC(=O)[C@H](CCSC)NC(=O)[C@H](CC(C)C)NC(=O)[C@H](CO)NC(=O)[C@H](CO)NC(=O)[C@H](CS)NC(=O)[C@H](CO)NC(=O)[C@@H](N)CS)C(C)C)C(=O)N[C@H](C(=O)N[C@@H](Cc1c[nH]c2ccccc12)C(=O)O)c1ccccc1 [Endothelin-1 analogue] | 8.89 | 9.76
CC[C@@H](C)[C@H](NC(=O)[C@H](CC(=O)O)NC(=O)[C@H](CC(C)C)NC(=O)[C@H](Cc1cnc[nH]1)NC(=O)[C@H](CS)NC(=O)[C@H](Cc1ccccc1)NC(=O)[C@H](Cc1ccc(O)cc1)NC(=O)[C@@H](NC(=O)[C@H](CS)NC(=O)[C@H](CCC(=O)O)NC(=O)[C@H](CCCCN)NC(=O)[C@H](CC(=O)O)NC(=O)[C@H](CCSC)NC(=O)[C@H](CC(C)C)NC(=O)[C@H](CO)NC(=O)[C@H](CO)NC(=O)[C@H](CS)NC(=O)[C@H](CO)NC(=O)[C@@H](N)CS)C(C)C)C(=O)N[C@@H](C(=O)N[C@@H](Cc1c[nH]c2ccccc12)C(=O)O)C(C)C [Endothelin-1 analogue] | 9 | 9.05
CC[C@@H](C)[C@H](NC(=O)[C@H](CC(=O)O)NC(=O)[C@H](CC(C)C)NC(=O)[C@H](Cc1cnc[nH]1)NC(=O)[C@H](CS)NC(=O)[C@H](Cc1ccccc1)NC(=O)[C@H](Cc1ccc(O)cc1)NC(=O)[C@@H](NC(=O)[C@H](CS)NC(=O)[C@H](CCC(=O)O)NC(=O)[C@H](CCCCN)NC(=O)[C@H](CC(=O)O)NC(=O)[C@H](CCSC)NC(=O)[C@H](CC(C)C)NC(=O)[C@H](CO)NC(=O)[C@H](CO)NC(=O)[C@H](CS)NC(=O)[C@H](CO)NC(=O)[C@@H](N)CS)C(C)C)C(=O)N[C@H](Cc1ccccc1)C(=O)N[C@@H](Cc1c[nH]c2ccccc12)C(=O)O [Endothelin-1 analogue] | 6.07 | 8.6
